Laboratory results published in ChEMBL document CHEMBL4765394, “From irreversible to reversible covalent inhibitors: Harnessing the andrographolide scaffold for anti-inflammatory action” (Eur J Med Chem, 2020).
Activity calls are given as the source filed them. No cut-off for these calls is given here.

Assays:
[1] = Aqueous stability of compound; assay type: physicochemical; details: buffer
RAW264.7 [2] = experiment: Antiinflammatory activity in mouse RAW264.7 cells assessed as inhibition of LPS-induced IL6 release at 5 to 10 uM preincubated for 1 hr followed by LPS stimulation and measured after 24 hrs by ELISA; assay type: functional, cell-based; details: dose 5-10 µM, time 25.0 hrs
RAW264.7 [3] = experiment: Antiinflammatory activity in mouse RAW264.7 cells assessed as inhibition of LPS-induced TNFalpha release at 5 to 10 uM preincubated for 1 hr followed by LPS stimulation and measured after 4 hrs by ELISA; assay type: functional, cell-based; details: dose 5-10 µM, time 5.0 hrs
[4] = molecular target: T1, Nuclear factor NF-kappa-B p105 subunit (Homo sapiens) (UniProt P19838); experiment: Inhibition of DNA binding activity of human NF-kappaB p50 at 200 uM measured after 1 hr by ELISA
T1 sequence (whole entry): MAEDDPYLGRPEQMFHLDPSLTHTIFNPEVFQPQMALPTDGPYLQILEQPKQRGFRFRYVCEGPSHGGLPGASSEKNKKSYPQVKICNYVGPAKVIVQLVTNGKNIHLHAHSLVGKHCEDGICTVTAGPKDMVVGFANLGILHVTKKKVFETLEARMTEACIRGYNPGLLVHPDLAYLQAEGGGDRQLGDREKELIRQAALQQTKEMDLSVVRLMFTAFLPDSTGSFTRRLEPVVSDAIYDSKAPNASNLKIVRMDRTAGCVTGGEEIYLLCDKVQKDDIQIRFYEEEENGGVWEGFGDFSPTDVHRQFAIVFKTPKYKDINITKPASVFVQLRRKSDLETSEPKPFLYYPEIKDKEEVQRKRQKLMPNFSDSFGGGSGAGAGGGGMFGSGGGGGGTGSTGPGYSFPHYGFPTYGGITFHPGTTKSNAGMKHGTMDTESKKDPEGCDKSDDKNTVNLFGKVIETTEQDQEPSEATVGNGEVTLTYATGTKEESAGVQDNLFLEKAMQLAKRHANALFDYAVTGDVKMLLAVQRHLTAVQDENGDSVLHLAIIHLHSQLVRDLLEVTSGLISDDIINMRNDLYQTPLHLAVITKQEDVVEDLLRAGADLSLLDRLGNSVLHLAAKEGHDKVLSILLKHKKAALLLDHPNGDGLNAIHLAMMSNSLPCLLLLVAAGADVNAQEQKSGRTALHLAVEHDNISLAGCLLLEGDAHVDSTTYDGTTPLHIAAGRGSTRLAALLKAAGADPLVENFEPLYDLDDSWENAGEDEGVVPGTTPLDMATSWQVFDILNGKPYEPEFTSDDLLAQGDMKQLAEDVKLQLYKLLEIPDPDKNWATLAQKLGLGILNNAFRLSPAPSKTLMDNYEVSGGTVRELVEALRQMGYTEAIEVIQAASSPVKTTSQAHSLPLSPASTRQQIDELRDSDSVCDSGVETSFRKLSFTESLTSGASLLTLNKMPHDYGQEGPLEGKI

RAW-Blue [5] = experiment: Inhibition of LPS-induced NF-kappaB activity in mouse RAW-Blue cells assessed as reduction in SEAP reporter activity at 5 to 20 uM preincubated for 1 hr followed by LPS stimulation and measured after 8 hrs by SEAP reporter gene assay; assay type: cell-based; details: dose 5-20 µM, time 9.0 hrs
RAW-Blue [6] = experiment: Inhibition of LPS-induced NF-kappaB activity in mouse RAW-Blue cells assessed as reduction in SEAP reporter activity at 5 to 20 uM preincubated for 1 hr followed by LPS stimulation and measured after 24 hrs by SEAP reporter gene assay; assay type: cell-based; details: dose 5-20 µM, time 25.0 hrs
RAW-Blue [7] = experiment: Activation of NF-kappaB activity in mouse RAW-Blue cells assessed as increase in SEAP reporter activity at 5 to 20 uM measured after 24 hrs by SEAP reporter gene assay; assay type: cell-based; details: filed as activator, dose 5-20 µM
RAW-Blue [8] = experiment: Activation of NF-kappaB activity in mouse RAW-Blue cells assessed as increase in SEAP reporter activity at 30 uM measured after 24 hrs in presence of p38 inhibitor SB203580 by SEAP reporter gene assay; assay type: cell-based
[9] = GSH reactivity in PBS assessed as GSH adduct formation measured up to 8 hrs by HPLC-MS analysis; assay type: ADME; details: buffer
[10] = GSH reactivity in PBS assessed as GSH adduct formation by measuring half life by HPLC-MS analysis; assay type: ADME
[11] = GSH reactivity assessed as GSH adduct formation by measuring reduction in intracellular GSH level at 20 uM measured after 2 hrs by cell-based monochlorobimane fluorometric method; assay type: ADME; design: scale not given: the % may be the effect or the level left
RAW264.7 [12] = experiment: Cytotoxicity against BSO-treated mouse RAW264.7 cells assessed as reduction cell viability measured after 24 hrs by Celltiter-glo assay; assay type: cell-based; details: raw264.7, 24 h, dose 10-20 µM
RAW264.7 [13] = experiment: Cytotoxicity against mouse RAW264.7 cells assessed as reduction cell viability at 20 uM measured after 24 hrs by Celltiter-glo assay; assay type: cell-based; details: raw264.7, 24 h
RAW-Blue [14] = experiment: Inhibition of LPS-induced NF-kappaB activity in mouse RAW-Blue cells assessed as reduction in SEAP reporter activity at 5 to 20 uM preincubated for 1 hr followed by LPS stimulation and measured after 8 to 24 hrs by SEAP reporter gene assay; assay type: cell-based; details: dose 5-20 µM, time 25.0 hrs
[15] = Cytotoxicity against human L02 cells assessed as reduction in cell viability measured after 24 hrs by Celltiter-glo assay; assay type: cell-based
[16] = Cytotoxicity against HEK293 cells assessed as reduction in cell viability measured after 24 hrs by Celltiter-glo assay; assay type: cell-based; details: human
RAW264.7 [17] = experiment: Antiinflammatory activity in BSO-treated mouse RAW264.7 cells assessed as inhibition of LPS-induced TNFalpha release at 2.5 to 10 uM preincubated for 1 hr followed by LPS stimulation and measured after 4 hrs by ELISA; assay type: functional, cell-based; details: dose 2.5-10 µM, time 5.0 hrs
RAW264.7 [18] = experiment: Activation of JNK phosphorylation in mouse RAW264.7 cells at 50 uM measured after 4 hrs by Western blot analysis; assay type: cell-based; details: filed as activator
RAW264.7 [19] = experiment: Activation of JNK phosphorylation in BSO-treated mouse RAW264.7 cells at 50 uM measured after 4 hrs by Western blot analysis; details: filed as activator
RAW264.7 [20] = experiment: Antiinflammatory activity in 2 hrs NAC-pretreated mouse RAW264.7 cells assessed as inhibition of LPS-induced TNFalpha release at 10 uM preincubated for 1 hr followed by LPS stimulation and measured after 4 hrs by ELISA relative to control; assay type: functional; details: time 5 hrs
RAW264.7 [21] = experiment: Antiinflammatory activity in 4 hrs NAC-pretreated mouse RAW264.7 cells assessed as inhibition of LPS-induced TNFalpha release at 10 uM preincubated for 1 hr followed by LPS stimulation and measured after 4 hrs by ELISA relative to control; assay type: functional; details: time 5 hrs
RAW264.7 [22] = experiment: Antiinflammatory activity in 24 hrs NAC-pretreated mouse RAW264.7 cells assessed as inhibition of LPS-induced TNFalpha release at 10 uM preincubated for 1 hr followed by LPS stimulation and measured after 4 hrs by ELISA relative to control; assay type: functional; details: time 5 hrs
RAW264.7 [23] = experiment: Cytotoxicity against mouse RAW264.7 cells assessed as reduction cell viability at 5 to 50 uM measured after 24 hrs by Celltiter-glo assay; assay type: cell-based; details: raw264.7, 24 h, dose 5-50 µM
RAW264.7 [24] = experiment: Cytotoxicity against mouse RAW264.7 cells assessed as reduction cell viability at 5 uM measured after 24 hrs by Celltiter-glo assay; assay type: cell-based; details: raw264.7, 24 h
[25] = GSH reactivity in PBS assessed as isomerization measured up to 24 hrs by HPLC-MS analysis; assay type: ADME; details: buffer

Row | Compound | Stabilty [1] | inhibition (RAW264.7 [2]) | inhibition (RAW264.7 [3]) | other results
1 | C=C1CC[C@@H]2[C@](C)(CO)[C@H](O)CC[C@@]2(C)[C@@H]1C/C=C/C(C)O (some centres not stated) |  |  |  | inhibition [4]: inactive
2 | C=C1CC[C@@H]2[C@](C)(CO)[C@H](O)CC[C@@]2(C)[C@@H]1C/C=C1\C(=O)Nc2ccc(F)cc21 | Stable | inactive |  | 
3 | C=C1CC[C@@H]2[C@](C)(CO)[C@H](O)CC[C@@]2(C)[C@@H]1C/C=C1/C(=O)Nc2ccc(F)cc21 | Stable | inactive |  | 
4 | C=C1CC[C@@H]2[C@](C)(CO)[C@H](O)CC[C@@]2(C)[C@@H]1C/C=C1\C[C@@H](OC)OC1=O | Stable | inactive |  | 
5 | C=C1CC[C@@H]2[C@](C)(CO)[C@H](O)CC[C@@]2(C)[C@@H]1/C=C/C1=CCOC1=O | Stable | inactive | inactive | 
6 | C=C1CC[C@@H]2[C@](C)(CO)[C@H](O)CC[C@@]2(C)[C@@H]1C/C=C1/C(=O)OC[C@H]1O [ANDROGRAPHOLIDE] | Stable | Active | Active | Activity (RAW264.7 [13]): Toxic; inhibition (RAW-Blue [14]): inactive; Activity (RAW-Blue [7]): Active; Activity (RAW-Blue [8]): inactive; K [9]: 2.44e-05 M⁻¹ s⁻¹; t1/2 [10]: 5.46 h; CC50 at 24 h [15]: 14.7 µM; CC50 at 24 h [16]: 26.2 µM; inhibition (RAW264.7 [17]): Active; CC50 (RAW264.7 [12]): 10 µM; Activity (RAW264.7 [18]): Active; Activity (RAW264.7 [19]): Active; inhibition at 10 µM (RAW264.7 [20]): 17%; inhibition at 10 µM (RAW264.7 [21]): 30%; inhibition at 10 µM (RAW264.7 [22]): 62%
7 | C=C1CC[C@@H]2[C@](C)(CO)[C@H](O)CC[C@@]2(C)[C@@H]1C/C=C1\C(=O)Nc2ccccc21 | Stable | inactive |  | 
8 | C=C(CO)C(=O)OC |  | inactive | inactive | 
9 | C[C@H]1CC[C@@H]2[C@](C)(CO)[C@H](O)CC[C@@]2(C)[C@@H]1CC[C@@H]1C(=O)OC[C@H]1O | Stable | inactive | inactive | 
10 | C=C1CC[C@@H]2[C@](C)(CO)[C@H](O)CC[C@@]2(C)[C@@H]1C/C=C1\NC(=O)NC1=O | Stable | inactive |  | Activity (RAW264.7 [23]): Non-Toxic
11 | C=C1CC[C@@H]2[C@](C)(CO)[C@H](O)CC[C@@]2(C)[C@@H]1C/C=C1\C[C@H](OC)OC1=O | Stable | inactive |  | 
12 | C=C1CC[C@@H]2[C@](C)(CO)[C@H](O)CC[C@@]2(C)[C@@H]1C/C=C1/C(=O)Nc2ccccc21 | Stable | inactive | inactive | 
13 | CC(=O)CCC[C@@H]1[C@@H](C)CC[C@@H]2[C@](C)(CO)[C@H](O)CC[C@]21C |  |  |  | inhibition [4]: inactive
14 | C=C1CC[C@@H]2[C@](C)(CO)[C@H](O)CC[C@@]2(C)[C@@H]1C/C=C1\SC(=S)NC1=O | Stable | inactive | inactive | Activity (RAW264.7 [23]): Non-Toxic

The next lines start with results.

Row | Stabilty [1] | Compound | inhibition (RAW264.7 [2]) | inhibition (RAW264.7 [3]) | other results
15 | Stable | C=C1CC[C@@H]2[C@](C)(CO)[C@H](O)CC[C@@]2(C)[C@@H]1CC=O | inactive | inactive | 
16 | Stable | C=C1CC[C@@H]2[C@](C)(CO)[C@H](O)CC[C@@]2(C)[C@@H]1C/C=C/C#N | inactive | inactive | 
17 | Unstable | C=C1CC[C@@H]2[C@](C)(CO)[C@H](O)CC[C@@]2(C)[C@@H]1CC=C(C#N)C#N |  |  | 
18 | Stable | C=C1CC[C@@H]2[C@](C)(CO)[C@H](O)CC[C@@]2(C)[C@@H]1C/C=C1\C=COC1=O | Active | Active | inhibition (RAW-Blue [5]): Active; inhibition (RAW-Blue [6]): inactive; Activity (RAW-Blue [7]): Active; Activity (RAW-Blue [8]): inactive; K [9]: 0.003539 M⁻¹ s⁻¹; t1/2 [10]: 0.05 h; Activity [11]: > 70%
19 | Stable | C=C1CC[C@@H]2[C@](C)(CO)[C@H](O)CC[C@@]2(C)[C@@H]1C/C=C1/C=COC1=O | Active | Active | inhibition (RAW-Blue [5]): Active; inhibition (RAW-Blue [6]): inactive; Activity [11]: > 70%
20 | Stable | C=C1CC[C@@H]2[C@](C)(CO)[C@H](O)CC[C@@]2(C)[C@@H]1C/C=C/C(=O)OCC | inactive | inactive | 
21 | Stable | C=C1CC[C@@H]2[C@](C)(CO)[C@H](O)CC[C@@]2(C)[C@@H]1C/C=C1\CCOC1=O | inactive | inactive | CC50 (RAW264.7 [12]): > 30 µM
22 | Stable | C=C1CC[C@@H]2[C@](C)(CO)[C@H](O)CC[C@@]2(C)[C@@H]1C/C=C\C#N | inactive |  | 
23 | Stable | C=C1CC[C@@H]2[C@](C)(CO)[C@H](O)CC[C@@]2(C)[C@@H]1C/C=C1/CCOC1=O | inactive |  | 
24 | Stable | C=C1CC[C@@H]2[C@](C)(CO)[C@H](O)CC[C@@]2(C)[C@@H]1C/C=C1\SC(=O)NC1=O | inactive |  | Activity (RAW264.7 [23]): Non-Toxic
25 | Stable | C=C1CC[C@@H]2[C@](C)(CO)[C@H](O)CC[C@@]2(C)[C@@H]1C/C=C1\C(=O)OC[C@H]1O |  | inactive | inhibition (RAW-Blue [14]): inactive
26 | Stable | C=C1CC[C@@H]2[C@](C)(CO)[C@H](O)CC[C@@]2(C)[C@@H]1C/C=C/C(=O)c1ccccc1 | Active | Active | Activity (RAW264.7 [24]): Toxic; inhibition (RAW-Blue [5]): Active; inhibition (RAW-Blue [6]): Active; Drug metabolism [25]: Metabolite_Notdetected; K [9]: 6.036e-05 M⁻¹ s⁻¹; t1/2 [10]: 2.12 h
